Reference: US11026943B2, “Aminoquinoline derivatives and uses thereof” (UNIVERSITY OF DELHI, priority 2012, dated 2021)

Experiments:
[1] = target: Nurr1 LBD (Mus musculus, UniProt Q06219); test: Surface plasmon resonance (BIAcore) binding, Nurr1-LBD
Experimental: Binding experiments were performed with the surface Plasmon Resonance-based biosensor instrument BIAcore 3000 (BIAcore AB, Uppsala). Immobilization of the purified proteins on the sensor surface was performed following the standard amine coupling procedure according to manufacturer's instructions. The final immobilization response of each protein was 6000 resonance units. A reference surface was generated simultaneously under the same conditions with BSA and used as a blank to correct for instrument and buffer artifacts. AQ and kanamycin were injected at variable concentrations at 20 μl/min flow rate, and binding to the protein immobilized on the chip was monitored in real-time. […] Binding data were analyzed using the BIAcore 3000 CONTROL® software and the BIAEVALUATION® software.
To investigate whether AQ and CQ physically interact with Nurr1's LBD, the inventors purified the Nurr1 LBD polypeptide (amino acid 328-598) and analyzed their physical binding using the Biacore S51 SPR sensor, which has a higher sensitivity and improved fluidics, enabling the monitoring of small signal changes derived from binding of compounds to proteins.

[2] = tested on: PC12 cells; test: 6-OHDA toxicity in PC12 cells (MTT reduction assay); type: cell-based, rat
Experimental: Cell viabilities were determined by the conventional MTT reduction assay. After incubation for indicated times, cells were treated with the MTT solution (final concentration, 1 mg/ml, Sigma) for 1 h. Formazan grains formed in intact cells were solubilized with MTT Solubilization. Solution containing 10% Triton X-100 plus 0.1 N HCl in anhydrous isopropanol for 24 h and then absorbance at 570 nm was measured with a microplate reader (Molecular Devices, Menlo Park, Calif.).

[3] = target: T1, Nurr1 DBD (Mus musculus, UniProt Q06219); test: GAL4 / GAL4-Nurr1 DBD reporter assay; type: cell-based
T1 construct: the yeast transcription factor GAL4's DBD is fused to either Nurr1 LBD or DBD; expressed in transfected cells; host or cells: SK-N-BE(2)C human neuroblastoma cells
T1 sequence (Q06219 260-335 limits assumed): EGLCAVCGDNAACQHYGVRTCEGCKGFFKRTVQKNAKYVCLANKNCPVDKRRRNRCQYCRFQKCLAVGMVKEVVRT

[4] = target: T2, Nurr1 interaction with SRC-1 and SRC-3 (Mus musculus, UniProt Q06219); test: Co-immunoprecipitation of Nurr1 with SRC-1/SRC-3 in SK-N-BE(2)C cells; type: cell-based; conditions: 30 μM AQ or 100 μM CQ for 16 hours
T2 construct: the C-terminal myc-tagged full-length Nurr1; His (from vector pCDNA3.1/myc-His) (C); expressed in transfected cells; host or cells: SK-N-BE(2)C human neuroblastoma cells
T2 sequence (Q06219 whole entry): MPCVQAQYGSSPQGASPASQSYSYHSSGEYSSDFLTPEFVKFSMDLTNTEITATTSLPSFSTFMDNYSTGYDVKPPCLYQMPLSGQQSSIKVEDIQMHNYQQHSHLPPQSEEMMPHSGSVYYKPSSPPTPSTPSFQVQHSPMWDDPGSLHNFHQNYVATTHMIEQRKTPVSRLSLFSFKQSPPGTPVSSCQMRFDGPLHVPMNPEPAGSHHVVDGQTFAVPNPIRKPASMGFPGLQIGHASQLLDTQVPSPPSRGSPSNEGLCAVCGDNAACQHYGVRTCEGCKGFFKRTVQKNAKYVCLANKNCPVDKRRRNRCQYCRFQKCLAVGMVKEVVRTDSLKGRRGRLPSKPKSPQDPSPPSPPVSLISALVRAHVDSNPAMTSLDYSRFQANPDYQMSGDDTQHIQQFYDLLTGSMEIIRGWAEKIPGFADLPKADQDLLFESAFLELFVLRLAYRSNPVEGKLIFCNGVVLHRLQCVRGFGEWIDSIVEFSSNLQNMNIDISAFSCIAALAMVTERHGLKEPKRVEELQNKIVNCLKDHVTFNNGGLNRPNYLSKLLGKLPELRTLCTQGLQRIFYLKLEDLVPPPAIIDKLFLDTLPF

[5] = tested on: primary cultures of rat mesencephalic DA neurons; test: 6-OHDA-induced death in primary mesencephalic DA neurons (TH+ count, [3H]DA uptake); type: cell-based; conditions: number of TH+ neurons and DA uptake; 20 μM 6-OHDA for 24 hr
[6] = tested on: neural precursor cells from E14 rat cortices; test: In vitro differentiation of Nurr1-transduced neural precursor cells into TH+ DA neurons; type: cell-based
Experimental: Error bars represent standard deviations.
Neural precursor cells (NPCs) from dissection of rat embryos days 14 cortices (E14) were proliferated in N2 medium supplemented with 20 ng/mL basic fibroblast growth factor (bFGF; R&D Systems, Minneapolis, Minn., USA). Following 3-4 days of bFGF-expansion, NPCs were dissociated in Ca^2+/Mg^2+-free Hank's balanced salt solution (CMF-HBSS, Invitrogen, Carlsbad, Calif.) and re-plated onto coverslips (12 mm diameter; Carolina Biological Supply Company, Burlington, N.C.) at 32,000 cells/coverslip pre-coated with poly-L-ornithine (PLO; […], Sigma, St Louis, Mo.) at 37° C. overnight followed by fibronectin (FN; […], Sigma) overnight. Prior to drug treatment, NPCs were transduced with Nurr1-expressing retrovirus of MOI 5 in the presence of polybrene (1 μg/ml, Sigma), cultured overnight in N2, and then differentiated. Getting started chemical treatment (every day for 2 hours), bFGF was not added anymore^3.
Cells were fixed in 4% paraformaldehyde (PFA) for 20 min, washed and then incubated with blocking buffer [PBS, 10% goat serum (Invitrogen), 0.3% Triton X-100 (Sigma)] for 1 hour. […] Following washes with PBS, appropriate fluorescence-tagged secondary antibodies (Jackson Immunoresearch Laboratories, West Grove, Pa.) were used for visualization. […]

[7] = target: T3, Nurr1 LBD with SRC-1/SRC-3 (Mus musculus, UniProt Q06219); test: Nurr1 LBD transactivation with VP16-SRC1/VP16-SRC3 overexpression; type: cell-based; conditions: 30 μM AQ or 100 μM CQ for 16 hours
T3 construct: The Nurr1 LBD fragment from amino acid position 328 to amino acid position 598 was PCR-amplified; expressed in transfected cells; host or cells: SK-N-BE(2)C human neuroblastoma cells
T3 sequence (Q06219 328-598): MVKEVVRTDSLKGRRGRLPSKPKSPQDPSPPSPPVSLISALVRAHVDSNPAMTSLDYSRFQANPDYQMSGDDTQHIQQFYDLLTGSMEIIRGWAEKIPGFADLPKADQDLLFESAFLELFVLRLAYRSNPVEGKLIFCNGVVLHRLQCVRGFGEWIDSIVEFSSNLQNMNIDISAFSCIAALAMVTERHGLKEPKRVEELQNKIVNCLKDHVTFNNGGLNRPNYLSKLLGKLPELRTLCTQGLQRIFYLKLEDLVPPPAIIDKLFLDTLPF

[8] = target: T4, Nurr1 (Mus musculus, UniProt Q06219); test: High-throughput cell-based screen of Nurr1-dependent TH promoter activation; conditions: library of 960 FDA-approved drugs
T4 construct: Full-length mouse Nurr1cDNA was amplified by RT-PCR from pSV40Nurr1; expressed in transfected cells; host or cells: SK-N-BE(2)C human neuroblastoma cells
T4 sequence (Q06219 whole entry): as the sequence (Q06219 whole entry) above

Chain of Nurr1 LBD (Q06219 328-598): as the sequence (Q06219 328-598) above

binding to Nurr1-LBD (SPR) [1]: specifically bound
response with GAL4 or GAL4-Nurr1 DBD [3]: no response
Nurr1 interactions with SRC-1 and SRC-3 [4]: significantly enhanced
Nurr1 transcriptional function with SRC-1/SRC-3 overexpression [7]: further enhanced
screen outcome [8]: hit compounds
Structure (SMILES): CCN(CC)Cc1cc(Nc2ccnc3cc(Cl)ccc23)ccc1O [AQ, amodiaquine]
neuroprotective effect in PC12 cells [2]: neuroprotective effect
6-OHDA-induced death in primary DA neurons [5]: significantly inhibit
number of TH+ neurons generated from neural stem cells [6]: enhanced
mRNA expression levels of TH, DAT, VMAT and AADC genes ([6]; in vitro differentiation for 9 d): enhanced
